Drawing on PubChem BioAssay AID180 (DTP/NCI, 2004), this text covers T/C for nine molecules.

The T/C is the ratio of treated to control.

This test concerns BDF1 mice, Adenocarcinoma 755 s.c., tumor weight T/C. Kind of test: NCI In Vivo Anticancer Drug Screen. Data for tumor model Adenocarcinoma 755 (subcutaneous) in B6D2F1 (BDF1) mice. Particulars: endpoint: mean tumor weight, higher = larger tumour. The protocol: The antitumor activity of compounds was measured in mice bearing transplantable tumors. Survival or tumor size were measured and the results are expressed as the measurement made in the treated group (T) divided by the measurement made in the vehicle treated control group (C). The tumor model used in this assay is Adenocarcinoma 755 (subcutaneous) in B6D2F1 (BDF1) mice

The mark [1] stands for this setting: dose: 6.0 mg/kg/injection, schedule: Q01DX011 (ip), vehicle: carboxymethylcellulose (CMC).
The mark [2] stands for this setting: dose: 12.0 mg/kg/injection, schedule: Q01DX011 (ip), vehicle: carboxymethylcellulose (CMC).

Structures are written as SMILES. Where “and” joins values, the source holds several entries; their conditions need not be identical. Equal entries are not always repeated.

As for `C=CC(CN1CC1)OC(C)=O` (configuration not stated), the T/C (dose: 0.25 mg/kg/injection, schedule: Q01DX011 (sc), vehicle: saline) is 97 % of control; the T/C (dose: 0.5 mg/kg/injection, schedule: Q01DX010 (oral), vehicle: saline) is 28 % of control; the T/C (dose: 0.5 mg/kg/injection, schedule: Q01DX011 (ip), vehicle: methylcellulose (MC)) is 62 % of control; the T/C (dose: 0.5 mg/kg/injection, schedule: Q01DX011 (sc), vehicle: saline) was 94 % of control; the T/C (dose: 1.0 mg/kg/injection, schedule: Q01DX006 (iv), vehicle: saline) is 63 % of control; the T/C (dose: 1.0 mg/kg/injection, schedule: Q01DX010 (oral), vehicle: saline) is 21 % of control. Moreover, the T/C is 49 % of control (dose: 1.0 mg/kg/injection, schedule: Q01DX011 (ip), vehicle: methylcellulose (MC)); 83 % of control (dose: 1.0 mg/kg/injection, schedule: Q01DX011 (sc), vehicle: saline); 93 % of control (dose: 1.0 mg/kg/injection, schedule: Q02DX004 (im), vehicle: saline); 202 % of control (dose: 1.24 mg/kg/injection, schedule: Q01DX011 (ip), vehicle: carboxymethylcellulose (CMC)); 36 % of control (dose: 1.6 mg/kg/injection, schedule: Q01DX011 (ip), vehicle: carboxymethylcellulose (CMC)); 81 % of control (dose: 1.69 mg/kg/injection, schedule: Q01DX011 (ip), vehicle: carboxymethylcellulose (CMC)). Further, the T/C is 76 % of control (dose: 1.81 mg/kg/injection, schedule: Q01DX011 (ip), vehicle: carboxymethylcellulose (CMC)); 66 % of control (dose: 2.0 mg/kg/injection, schedule: Q01DX006 (iv), vehicle: saline); 9 % of control (dose: 2.0 mg/kg/injection, schedule: Q01DX010 (oral), vehicle: saline); 47 % of control (dose: 2.0 mg/kg/injection, schedule: Q01DX011 (sc), vehicle: saline); 68 % of control (dose: 2.0 mg/kg/injection, schedule: Q02DX004 (im), vehicle: saline); 79 % of control (dose: 2.48 mg/kg/injection, schedule: Q01DX011 (ip), vehicle: carboxymethylcellulose (CMC)). Besides, the T/C runs as follows: (dose: 2.7 mg/kg/injection, schedule: Q01DX011 (ip), vehicle: carboxymethylcellulose (CMC)) 33 % of control; (dose: 3.2 mg/kg/injection, schedule: Q01DX011 (ip), vehicle: carboxymethylcellulose (CMC)) 77 % of control; (dose: 3.25 mg/kg/injection, schedule: Q01DX011 (oral), vehicle: saline) 50 % of control; (dose: 3.63 mg/kg/injection, schedule: Q01DX011 (ip), vehicle: carboxymethylcellulose (CMC)) 51 % of control; (dose: 3.96 mg/kg/injection, schedule: Q01DX011 (ip), vehicle: carboxymethylcellulose (CMC)) 29 % of control and 45 % of control; (dose: 4.0 mg/kg/injection, schedule: Q01DX006 (iv), vehicle: saline) 38 % of control. Moreover, the T/C was 7 % of control (dose: 4.0 mg/kg/injection, schedule: Q01DX010 (oral), vehicle: saline); 19 % of control and 40 % of control (dose: 4.0 mg/kg/injection, schedule: Q01DX011 (sc), vehicle: saline); 57 % of control (dose: 4.0 mg/kg/injection, schedule: Q02DX004 (im), vehicle: saline); 26 % of control under setting [1]; 26 % of control (dose: 6.4 mg/kg/injection, schedule: Q01DX011 (ip), vehicle: carboxymethylcellulose (CMC)); 7 % of control and 19 % of control (dose: 6.6 mg/kg/injection, schedule: Q01DX011 (ip), vehicle: carboxymethylcellulose (CMC)). Moreover, the T/C is 21 % of control (dose: 6.75 mg/kg/injection, schedule: Q01DX011 (ip), vehicle: carboxymethylcellulose (CMC)); 10 % of control (dose: 7.25 mg/kg/injection, schedule: Q01DX011 (ip), vehicle: carboxymethylcellulose (CMC)); 2 % of control and 8 % of control (dose: 7.5 mg/kg/injection, schedule: Q01DX011 (ip), vehicle: saline); 19 % of control (dose: 7.5 mg/kg/injection, schedule: Q01DX011 (oral), vehicle: saline); 16 % of control (dose: 8.0 mg/kg/injection, schedule: Q01DX006 (iv), vehicle: saline); 14 % of control (dose: 8.0 mg/kg/injection, schedule: Q01DX011 (ip), vehicle: carboxymethylcellulose (CMC)). Moreover, the T/C is, setting by setting: (dose: 8.0 mg/kg/injection, schedule: Q01DX011 (sc), vehicle: saline) 9 % of control; (dose: 8.0 mg/kg/injection, schedule: Q02DX004 (im), vehicle: saline) 27 % of control; (dose: 9.9 mg/kg/injection, schedule: Q01DX011 (ip), vehicle: carboxymethylcellulose (CMC)) 8 % of control and 11 % of control; under setting [2], 3 % of control; (dose: 15.0 mg/kg/injection, schedule: Q01DX011 (ip), vehicle: saline) 1 % of control; (dose: 62.5 micrograms/kg/injection, schedule: Q01DX011 (oral), vehicle: saline) 51 % of control. The T/C (dose: 125.0 micrograms/kg/injection, schedule: Q01DX011 (oral), vehicle: saline) is 37 % of control; the T/C (dose: 250.0 micrograms/kg/injection, schedule: Q01DX011 (oral), vehicle: saline) was 72 % of control; the T/C (dose: 500.0 micrograms/kg/injection, schedule: Q01DX011 (oral), vehicle: saline) was 86 % of control.
With `O=C(CCBr)Nc1ccc(NC(=O)CCBr)cc1`, the T/C is, setting by setting: (dose: 56.0 mg/kg/injection, schedule: Q01DX011 (ip), vehicle: methylcellulose (MC)) 113 % of control; (dose: 113.0 mg/kg/injection, schedule: Q01DX011 (ip), vehicle: methylcellulose (MC)) 108 % of control; (dose: 225.0 mg/kg/injection, schedule: Q01DX011 (ip), vehicle: methylcellulose (MC)) 100 % of control; (dose: 450.0 mg/kg/injection, schedule: Q01DX011 (ip), vehicle: methylcellulose (MC)) 117 % of control.
On to `O=C1C=Cc2ccc(O)cc2C1=O`, for which the T/C reads like this: (dose: 2.0 mg/kg/injection, schedule: Q01DX011 (ip), vehicle: saline) 103 % of control; (dose: 8.0 mg/kg/injection, schedule: Q01DX011 (ip), vehicle: saline) 50 % of control.
With `C=C(Cl)CN(CC)CCO`, the T/C was 77 % of control (dose: 50.0 mg/kg/injection, schedule: Q01DX011 (ip), vehicle: other); 69 % of control (dose: 100.0 mg/kg/injection, schedule: Q01DX011 (ip), vehicle: other); 76 % of control (dose: 200.0 mg/kg/injection, schedule: Q01DX011 (ip), vehicle: other).
As to `OCCN1CCN(CC/C=C2/c3ccccc3Sc3ccc(Cl)cc32)CC1`, the T/C is, setting by setting: (dose: 2.5 mg/kg/injection, schedule: Q01DX011 (ip), vehicle: methylcellulose (MC)) 90 % of control and 88 % of control; (dose: 5.0 mg/kg/injection, schedule: Q01DX011 (ip), vehicle: methylcellulose (MC)) 40 % of control and 42 % of control; (dose: 10.0 mg/kg/injection, schedule: Q01DX011 (ip), vehicle: methylcellulose (MC)) 32 % of control; (dose: 20.0 mg/kg/injection, schedule: Q01DX011 (ip), vehicle: methylcellulose (MC)) 17 % of control.
As for `C[C@]12CCC(=O)C=C1CC[C@H]1[C@@H]3CC[C@@]4(OCC4=O)[C@@]3(C)C[C@H](O)[C@@]12F`, the T/C (dose: 75.0 mg/kg/injection, schedule: Q01DX011 (sc), vehicle: steriod suspending solution) is 13 % of control and the T/C (dose: 150.0 mg/kg/injection, schedule: Q01DX011 (sc), vehicle: steriod suspending solution) was 11 % of control.
Consider `CC(C)C(=O)OCC1OC(n2cnc3c(=S)nc(N)[nH]c32)C(OC(=O)C(C)C)C1OC(=O)C(C)C` (configuration not stated), for which the T/C (dose: 1.5 mg/kg/injection, schedule: Q01DX011 (ip), vehicle: carboxymethylcellulose (CMC)) is 76 % of control and 79 % of control; the T/C (dose: 3.0 mg/kg/injection, schedule: Q01DX011 (ip), vehicle: carboxymethylcellulose (CMC)) is 43 % of control; the T/C under setting [1] was 25 % of control; the T/C under setting [2] was 18 % of control.
Take `CCSc1nc(N)nc2c1ncn2C1OC(CO)C(O)C1O` (configuration not stated): the T/C reads like this: (dose: 9.3 mg/kg/injection, schedule: Q01DX011 (ip), vehicle: methylcellulose (MC)) 55 % of control; (dose: 18.7 mg/kg/injection, schedule: Q01DX011 (ip), vehicle: methylcellulose (MC)) 39 % of control; (dose: 37.5 mg/kg/injection, schedule: Q01DX011 (ip), vehicle: methylcellulose (MC)) 3 % of control; (dose: 75.0 mg/kg/injection, schedule: Q01DX011 (ip), vehicle: methylcellulose (MC)) 4 % of control.
For `CN(C)c1ccc(Nc2c3ccccc3nc3ccccc23)cc1`, the T/C is, setting by setting: (dose: 9.0 mg/kg/injection, schedule: Q01DX011 (ip), vehicle: saline) 70 % of control; (dose: 18.0 mg/kg/injection, schedule: Q01DX011 (ip), vehicle: saline) 91 % of control; (dose: 35.0 mg/kg/injection, schedule: Q01DX011 (ip), vehicle: saline) 75 % of control; (dose: 70.0 mg/kg/injection, schedule: Q01DX011 (ip), vehicle: saline) 39 % of control.
